We go through two compounds from ChEMBL document CHEMBL5150077, “Identification of TUL01101: A Novel Potent and Selective JAK1 Inhibitor for the Treatment of Rheumatoid Arthritis” (J Med Chem, 2022).

As a reminder, the inhibition in vivo is the share of the control response that was lost under treatment. Broadly, the clearance is a measure of how efficiently the substance is removed, as volume per time. Broadly, the AUC is concentration integrated over time. As a reminder, the Cmax is the maximum level reached in the sampled fluid or tissue.

Data set [1] concerns Mus musculus. Briefly: Antiarthritic activity in collagen-induced rheumatoid arthritis DBA/1 mouse model assessed as inhibition rate at 15 mg/kg, po BID administered for 14 days starting from 7 days before immunization to 21 days after immunization and measured on day 41 post immunization. As to conditions: DBA/1, 336 h, time 14 day. Type of data set: functional.
The target in data set [2] is 5'-AMP-activated protein kinase catalytic subunit alpha-1 (Homo sapiens) (UniProt Q13131). As to the kind of experiment: Inhibition of human AMPKalpha1 assessed as residual activity at 30 uM relative to control.
5'-AMP-activated protein kinase catalytic subunit alpha-1 (Homo sapiens), sequence (Q13131 whole entry, looked up): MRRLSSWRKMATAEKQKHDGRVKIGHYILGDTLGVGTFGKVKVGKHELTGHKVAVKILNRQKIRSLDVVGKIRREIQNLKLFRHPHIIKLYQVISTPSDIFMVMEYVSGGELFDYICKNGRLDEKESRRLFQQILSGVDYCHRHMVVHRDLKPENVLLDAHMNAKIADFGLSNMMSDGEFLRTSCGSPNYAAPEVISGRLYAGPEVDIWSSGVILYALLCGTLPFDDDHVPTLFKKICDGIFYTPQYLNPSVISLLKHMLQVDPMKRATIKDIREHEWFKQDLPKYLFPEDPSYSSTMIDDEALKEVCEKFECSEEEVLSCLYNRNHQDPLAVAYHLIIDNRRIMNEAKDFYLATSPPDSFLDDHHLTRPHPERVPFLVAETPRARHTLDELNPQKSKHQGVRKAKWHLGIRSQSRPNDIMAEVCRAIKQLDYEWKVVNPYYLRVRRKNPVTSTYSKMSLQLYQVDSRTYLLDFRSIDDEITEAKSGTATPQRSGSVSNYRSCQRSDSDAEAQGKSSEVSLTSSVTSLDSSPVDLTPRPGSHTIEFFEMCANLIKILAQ
Data set [3] deals with Aurora kinase A (Homo sapiens) (UniProt O14965). As to the kind of experiment: Inhibition of human Aurora A assessed as residual activity at 30 uM relative to control.
Data set [4] has as its target Tyrosine-protein kinase Blk (Homo sapiens) (UniProt P51451). Briefly: Inhibition of human BLK assessed as residual activity at 30 uM relative to control.
In data set [5] the target is Cytoplasmic tyrosine-protein kinase BMX (Homo sapiens) (UniProt P51813). As to the kind of experiment: Inhibition of human BMX assessed as residual activity at 30 uM relative to control.
For data set [6], the target named is Receptor-type tyrosine-protein kinase FLT3 (Homo sapiens) (UniProt P36888). Briefly: Inhibition of human FLT3 assessed as residual activity at 30 uM relative to control.
Receptor-type tyrosine-protein kinase FLT3 (Homo sapiens), sequence (P36888 whole entry): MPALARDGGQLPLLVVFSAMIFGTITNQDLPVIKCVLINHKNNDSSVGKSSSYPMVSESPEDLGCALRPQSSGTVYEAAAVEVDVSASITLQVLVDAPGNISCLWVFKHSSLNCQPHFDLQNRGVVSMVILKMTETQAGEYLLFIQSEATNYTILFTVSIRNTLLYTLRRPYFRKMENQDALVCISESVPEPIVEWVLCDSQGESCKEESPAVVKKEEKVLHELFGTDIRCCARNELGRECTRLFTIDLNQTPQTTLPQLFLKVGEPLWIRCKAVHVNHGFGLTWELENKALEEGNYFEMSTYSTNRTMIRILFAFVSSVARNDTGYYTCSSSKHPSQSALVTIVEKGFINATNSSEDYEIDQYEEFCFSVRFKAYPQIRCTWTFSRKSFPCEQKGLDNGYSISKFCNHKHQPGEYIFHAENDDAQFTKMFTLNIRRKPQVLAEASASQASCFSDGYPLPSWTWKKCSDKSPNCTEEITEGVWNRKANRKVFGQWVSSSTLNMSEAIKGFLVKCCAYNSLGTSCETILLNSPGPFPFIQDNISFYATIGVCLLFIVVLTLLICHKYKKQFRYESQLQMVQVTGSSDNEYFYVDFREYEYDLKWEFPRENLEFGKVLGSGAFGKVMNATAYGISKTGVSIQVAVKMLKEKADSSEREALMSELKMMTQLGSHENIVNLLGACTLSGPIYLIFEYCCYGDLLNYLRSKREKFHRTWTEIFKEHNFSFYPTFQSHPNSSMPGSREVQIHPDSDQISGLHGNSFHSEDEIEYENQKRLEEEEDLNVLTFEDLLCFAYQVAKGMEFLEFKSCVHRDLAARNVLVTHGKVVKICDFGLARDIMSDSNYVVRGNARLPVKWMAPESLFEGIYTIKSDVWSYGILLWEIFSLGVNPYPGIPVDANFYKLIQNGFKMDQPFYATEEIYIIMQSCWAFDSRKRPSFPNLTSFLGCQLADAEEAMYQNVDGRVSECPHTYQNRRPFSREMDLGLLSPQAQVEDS
Data set [7] deals with Inhibitor of nuclear factor kappa-B kinase subunit beta (Homo sapiens) (UniProt O14920). As to the kind of experiment: Inhibition of human IKKbeta assessed as residual activity at 30 uM relative to control.
Data set [8] deals with Serine/threonine-protein kinase B-raf (Homo sapiens) (UniProt P15056). As to the kind of experiment: Inhibition of human B-raf assessed as residual activity at 30 uM relative to control.
For the next data set, the species on record is Homo sapiens. Briefly: Inhibition of human CDK1/Cyclin B assessed as residual activity at 30 uM relative to control.
Data set [9] addresses Mitogen-activated protein kinase 8 (Homo sapiens) (UniProt P45983). As to the kind of experiment: Inhibition of human JNK1-alpha1 assessed as residual activity at 30 uM relative to control.
Data set [10] deals with MAP kinase-activated protein kinase 2 (Homo sapiens) (UniProt P49137). Briefly: Inhibition of human MAPKAPK2 assessed as residual activity at 30 uM relative to control.
MAP kinase-activated protein kinase 2 (Homo sapiens), sequence (P49137 whole entry, looked up): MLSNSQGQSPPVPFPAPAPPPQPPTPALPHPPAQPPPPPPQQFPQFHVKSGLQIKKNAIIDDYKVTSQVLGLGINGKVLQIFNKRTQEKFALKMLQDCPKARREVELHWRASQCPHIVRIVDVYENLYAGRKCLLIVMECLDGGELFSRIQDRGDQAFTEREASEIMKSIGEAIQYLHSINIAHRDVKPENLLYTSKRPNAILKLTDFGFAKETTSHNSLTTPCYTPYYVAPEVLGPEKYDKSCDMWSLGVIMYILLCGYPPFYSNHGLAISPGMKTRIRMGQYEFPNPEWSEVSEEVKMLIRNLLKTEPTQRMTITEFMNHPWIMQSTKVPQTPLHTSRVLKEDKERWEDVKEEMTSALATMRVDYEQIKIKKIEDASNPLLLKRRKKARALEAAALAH
Data set [11] deals with Dual specificity tyrosine-phosphorylation-regulated kinase 3 (Homo sapiens) (UniProt O43781). Briefly: Inhibition of human DYRK3 assessed as residual activity at 30 uM relative to control.
Data set [12] deals with Epidermal growth factor receptor (Homo sapiens) (UniProt P00533). As to the kind of experiment: Inhibition of human EGFR assessed as residual activity at 30 uM relative to control.
Data set [13] has as its target Ephrin type-A receptor 2 (Homo sapiens) (UniProt P29317). As to the kind of experiment: Inhibition of human EPHA2 assessed as residual activity at 30 uM relative to control.
Data set [14] concerns the target Hepatocyte growth factor receptor (Homo sapiens) (UniProt P08581). Briefly: Inhibition of human MET assessed as residual activity at 30 uM relative to control.
For data set [15], the target named is Misshapen-like kinase 1 (Homo sapiens) (UniProt Q8N4C8). As to the kind of experiment: Inhibition of human MINK assessed as residual activity at 30 uM relative to control.
The target in data set [16] is Serine/threonine-protein kinase 26 (Homo sapiens) (UniProt Q9P289). As to the kind of experiment: Inhibition of human MST4 assessed as residual activity at 30 uM relative to control.
Serine/threonine-protein kinase 26 (Homo sapiens), sequence (Q9P289 2-416 limits assumed): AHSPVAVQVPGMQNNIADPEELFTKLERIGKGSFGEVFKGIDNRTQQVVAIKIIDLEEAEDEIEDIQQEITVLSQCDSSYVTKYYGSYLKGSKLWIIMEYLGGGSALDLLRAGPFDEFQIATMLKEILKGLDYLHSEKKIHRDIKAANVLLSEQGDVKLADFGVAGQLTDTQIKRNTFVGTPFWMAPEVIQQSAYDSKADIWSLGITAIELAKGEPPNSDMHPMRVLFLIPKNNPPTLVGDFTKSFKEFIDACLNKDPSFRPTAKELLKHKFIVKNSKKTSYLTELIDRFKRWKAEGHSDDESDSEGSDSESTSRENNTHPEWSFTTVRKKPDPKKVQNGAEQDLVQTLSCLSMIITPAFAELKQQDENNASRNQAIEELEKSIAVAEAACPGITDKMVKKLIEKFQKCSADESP
Data set [17] concerns the target Serine/threonine-protein kinase PAK 2 (Homo sapiens) (UniProt Q13177). Briefly: Inhibition of human PAK2 assessed as residual activity at 30 uM relative to control.
In data set [18] the target is Platelet-derived growth factor receptor alpha (Homo sapiens) (UniProt P16234). Briefly: Inhibition of human PDGFRalpha assessed as residual activity at 30 uM relative to control.
Platelet-derived growth factor receptor alpha (Homo sapiens), sequence (P16234 whole entry, the tested form may be a part): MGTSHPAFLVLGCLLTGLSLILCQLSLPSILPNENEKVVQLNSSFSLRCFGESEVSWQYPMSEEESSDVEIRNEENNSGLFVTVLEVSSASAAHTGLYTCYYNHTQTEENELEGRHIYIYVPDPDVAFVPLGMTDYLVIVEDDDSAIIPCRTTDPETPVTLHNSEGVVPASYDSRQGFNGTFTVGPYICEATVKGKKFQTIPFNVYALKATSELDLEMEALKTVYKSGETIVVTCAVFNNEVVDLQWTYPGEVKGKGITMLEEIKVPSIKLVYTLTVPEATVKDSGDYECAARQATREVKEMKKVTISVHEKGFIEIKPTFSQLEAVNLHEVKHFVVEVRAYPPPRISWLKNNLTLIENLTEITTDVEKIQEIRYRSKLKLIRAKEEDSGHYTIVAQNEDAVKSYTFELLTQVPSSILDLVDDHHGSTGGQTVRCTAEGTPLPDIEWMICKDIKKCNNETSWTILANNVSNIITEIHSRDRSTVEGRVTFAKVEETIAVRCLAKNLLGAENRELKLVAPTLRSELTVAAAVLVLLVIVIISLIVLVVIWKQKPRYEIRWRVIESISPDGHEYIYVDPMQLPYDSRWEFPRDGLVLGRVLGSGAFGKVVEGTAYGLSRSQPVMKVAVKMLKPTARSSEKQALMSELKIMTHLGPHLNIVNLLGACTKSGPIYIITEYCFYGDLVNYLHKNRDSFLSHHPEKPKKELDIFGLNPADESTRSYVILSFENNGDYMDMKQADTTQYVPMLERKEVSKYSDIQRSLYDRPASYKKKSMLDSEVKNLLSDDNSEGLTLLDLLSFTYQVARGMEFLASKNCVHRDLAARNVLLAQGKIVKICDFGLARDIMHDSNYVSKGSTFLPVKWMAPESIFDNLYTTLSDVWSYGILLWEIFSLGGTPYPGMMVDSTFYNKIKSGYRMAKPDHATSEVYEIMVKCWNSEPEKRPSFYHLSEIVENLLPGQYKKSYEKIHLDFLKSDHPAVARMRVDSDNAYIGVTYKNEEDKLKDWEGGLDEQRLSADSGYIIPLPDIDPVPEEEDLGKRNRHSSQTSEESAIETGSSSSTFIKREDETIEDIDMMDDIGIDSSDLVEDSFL
The target of data set [19] is Proto-oncogene tyrosine-protein kinase Src (Homo sapiens) (UniProt P12931). As to the kind of experiment: Inhibition of human Src (1 to 530 residues) assessed as residual activity at 30 uM relative to control.
A short description of data set [20]: Elimination half life in Sprague-Dawley rat at 10 mg/kg, po measured for 24 hrs by LC-MS/MS analysis. The class given is ADME, organism-based. As to conditions: in vivo, read-out: beta t1/2 (converted).
Data set [21] can be described thus: Clearance in Sprague-Dawley rat at 1 mg/kg, iv measured for 24 hrs by LC-MS/MS analysis. As to conditions: in vivo. The class given is ADME, organism-based.
Data set [22] is described as follows: AUC in Sprague-Dawley rat at 10 mg/kg, po measured for 24 hrs by LC-MS/MS analysis. The class given is ADME, organism-based. Also on record: time 24 hrs, dose 10 mg/kg, route po. As to conditions: in vivo.
Data set [23] is described as follows: Volume of distribution at steady state in beagle dog at 0.2 mg/kg, iv measured for 24 hrs by LC-MS/MS analysis. As to conditions: in vivo, read-out: Vdss. Type of data set: ADME, organism-based, Canis lupus familiaris.
A short description of data set [24]: Clearance in beagle dog at 0.2 mg/kg, iv measured for 24 hrs by LC-MS/MS analysis. The class given is ADME, organism-based, Canis lupus familiaris. As to conditions: in vivo.
Data set [25] in a line: AUC in beagle dog at 5 mg/kg, po measured for 24 hrs by LC-MS/MS analysis. The class given is ADME, organism-based, Canis lupus familiaris. The arrangement: time 24 hrs, dose 5 mg/kg, route po. As to conditions: in vivo.
Data set [26] deals with Rattus norvegicus. As to the kind of experiment: Antiarthritic activity in adjuvant-induced arthritis rat model assessed as clinical score at 3 mg/kg, po administered twice a day for 14 days starting from day 13 to 27 post immunization and measured every 3 days a week. Type of data set: functional. As to conditions: time 14 day.
In data set [27] the test system is Rattus norvegicus. As to the kind of experiment: Antiarthritic activity in adjuvant-induced arthritis rat model assessed as clinical score at 10 mg/kg, po administered twice a day for 14 days starting from day 13 to 27 post immunization and measured every 3 days a week. Type of data set: functional. As to conditions: time 14 day.
In data set [28] the test system is Rattus norvegicus. Briefly: Antiarthritic activity in adjuvant-induced arthritis rat model assessed as clinical score at 30 mg/kg, po administered twice a day for 14 days starting from day 13 to 27 post immunization and measured every 3 days a week. Type of data set: functional. As to conditions: time 14 day.
Data set [29] concerns Rattus norvegicus. Briefly: Antiarthritic activity in adjuvant-induced arthritis rat model assessed as reduction in paw volume at 1 mg/kg, po administered twice a day for 14 days starting from day 13 to 27 post immunization and measured every 3 days a week. Type of data set: functional. As to conditions: time 14 day.
A short description of data set [30]: Toxicity in rat assessed as reduction in body weight at 10 mg/kg/day, po administered via gavage once a day pretreated for 9 weeks prior to co-cage and measured on day 74 relative to control. The class given is organism-based. Also on record: scale not given: the % may be the effect or the level left. As to conditions: in vivo, 1776 h, time 74 day.
Data set [31] is described as follows: Toxicity in rat assessed as reduction in food intake at 10 mg/kg/day, po administered via gavage once a day pretreated for 9 weeks prior to co-cage and measured on day 84. The arrangement: scale not given: the % may be the effect or the level left. As to conditions: in vivo, 2016 h, time 84 day. Type of data set: organism-based.
The nature of data set [32]: in vivo. As to conditions: Sprague-Dawley, rat, po, 10 mg/kg.
The nature of data set [33]: in vivo. As to conditions: beagle, dog, po, 5 mg/kg.
The nature of data set [34]: in vivo. As to conditions: beagle, dog, po, 5 mg/kg. The source holds these as a separate data set.
Data set [35] concerns Mus musculus. As to the kind of experiment: Antiarthritic activity in collagen-induced rheumatoid arthritis DBA/1 mouse model assessed as reduction in incidence rate at 15 mg/kg, po BID administered for 14 days starting from 7 days before immunization to 21 days after immunization and measured on day 34 post immunization. The class given is functional. The arrangement: scale not given: the % may be the effect or the level left. As to conditions: time 14 day.

Data set [36] concerns Mus musculus. Briefly: Antiarthritic activity in collagen-induced rheumatoid arthritis DBA/1 mouse model assessed as reduction in incidence rate at 15 mg/kg, po BID administered for 14 days starting from 7 days before immunization to 21 days after immunization and measured on day 41 post immunization. Type of data set: functional. The arrangement: scale not given: the % may be the effect or the level left. As to conditions: time 14 day.

Ephrin type-A receptor 2 (Homo sapiens), sequence (P29317 whole entry): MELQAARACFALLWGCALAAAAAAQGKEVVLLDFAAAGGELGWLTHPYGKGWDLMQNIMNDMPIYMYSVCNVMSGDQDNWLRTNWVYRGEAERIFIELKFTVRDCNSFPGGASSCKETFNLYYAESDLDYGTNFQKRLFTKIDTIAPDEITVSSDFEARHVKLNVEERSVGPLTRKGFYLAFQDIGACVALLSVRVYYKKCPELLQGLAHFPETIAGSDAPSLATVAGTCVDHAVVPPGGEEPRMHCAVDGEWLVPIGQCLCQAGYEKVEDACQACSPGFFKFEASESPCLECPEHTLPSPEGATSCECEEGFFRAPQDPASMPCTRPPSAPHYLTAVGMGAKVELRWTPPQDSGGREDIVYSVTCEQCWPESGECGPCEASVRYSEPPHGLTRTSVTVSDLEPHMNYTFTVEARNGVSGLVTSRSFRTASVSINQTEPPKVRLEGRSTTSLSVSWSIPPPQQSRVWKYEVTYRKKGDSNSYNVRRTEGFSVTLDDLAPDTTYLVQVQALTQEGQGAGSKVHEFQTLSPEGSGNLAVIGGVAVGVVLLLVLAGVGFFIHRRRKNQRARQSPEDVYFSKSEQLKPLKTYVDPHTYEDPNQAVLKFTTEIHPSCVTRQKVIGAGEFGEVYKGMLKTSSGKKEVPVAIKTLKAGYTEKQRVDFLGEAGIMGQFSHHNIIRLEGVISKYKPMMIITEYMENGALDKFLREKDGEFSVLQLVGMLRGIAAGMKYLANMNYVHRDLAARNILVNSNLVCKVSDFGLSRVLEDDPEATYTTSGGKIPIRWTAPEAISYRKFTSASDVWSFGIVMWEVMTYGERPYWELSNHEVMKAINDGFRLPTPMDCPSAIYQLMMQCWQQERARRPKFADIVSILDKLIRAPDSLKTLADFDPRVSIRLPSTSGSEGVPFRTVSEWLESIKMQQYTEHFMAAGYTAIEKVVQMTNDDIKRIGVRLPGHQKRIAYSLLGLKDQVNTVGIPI
Serine/threonine-protein kinase PAK 2 (Homo sapiens), sequence (Q13177 whole entry): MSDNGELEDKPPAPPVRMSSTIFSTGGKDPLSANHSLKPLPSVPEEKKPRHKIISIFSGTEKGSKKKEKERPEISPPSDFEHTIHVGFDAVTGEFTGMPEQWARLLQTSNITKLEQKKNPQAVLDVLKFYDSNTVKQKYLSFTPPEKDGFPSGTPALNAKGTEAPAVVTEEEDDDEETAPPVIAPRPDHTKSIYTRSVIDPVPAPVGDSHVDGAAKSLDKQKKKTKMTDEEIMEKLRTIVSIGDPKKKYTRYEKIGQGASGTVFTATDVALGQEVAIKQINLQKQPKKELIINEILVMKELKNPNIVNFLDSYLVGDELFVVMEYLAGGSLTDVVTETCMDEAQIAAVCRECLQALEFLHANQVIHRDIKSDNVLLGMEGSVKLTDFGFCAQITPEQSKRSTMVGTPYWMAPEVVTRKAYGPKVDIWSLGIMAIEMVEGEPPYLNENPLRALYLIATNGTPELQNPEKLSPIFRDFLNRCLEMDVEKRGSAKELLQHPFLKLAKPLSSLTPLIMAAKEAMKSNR

For the compound `O=C(Nc1nc2cccc(C3CCC4(CC3)CN(C(=O)[C@@H]3CC3(F)F)C4)n2n1)C1CC1`, the inhibition in vivo at 15 mg/kg in the data set with Mus musculus [1] stood at 59.9%. In addition, the Activity was 110% in [2]; 57% in data set [3]; 81% in data set [4]; 99% in [5]; 34% in [6]; 97% in data set [7]. In addition, the Activity in [8] was determined as 84%; in the data set listed under Homo sapiens, 109%; in data set [9], 109%; in data set [10] it was 112%; in data set [11], 95%; in data set [12], 94%. Besides, the Activity in [13] is 102%; in data set [14], 90%; in data set [15], 107%; in data set [16] it was 99%; in [17] it was 93%; in data set [18], 102%. Further, the Activity in data set [19] was determined as 86%; in the data set with Rattus norvegicus [26] it was 3.9; in the data set with Rattus norvegicus [27] it was 3.2; in the data set with Rattus norvegicus [28], 2.7; in the data set with Rattus norvegicus [29], 1.91 mL; in data set [30] it was 4.99%. Besides, in data set [31], the Activity was determined as 7.8%. Also, the half-life in [20] is 3.06 h. Moreover, the clearance was 10.5 mL/min/kg in data set [21] and 5.73 mL/min/kg in data set [24]. Further, the AUC at 24 h worked out at 19600 ng·h/mL in [22] and 16700 ng·h/mL in data set [25]. For the same compound, the Vd in [23] was determined as 3.23 L/kg. Moreover, the Cmax at 24 h in “in vivo [32]” came to 4960 ng/mL; in the data set “in vivo [33]”, 2750 ng/mL. Moreover, the bioavailability at 24 h in “in vivo [34]” was 106%.

Turning to `O=C(Nc1nc2cccc(C3CCC4(CC3)CCN(C(=O)[C@@H]3CC3(F)F)CC4)n2n1)C1CC1`, the Activity was determined as 88% in the data set with Mus musculus [35] and 100% in the data set with Mus musculus [36].
